In PMC5728534 (PLoS ONE, 2017):
Numbering of substitutions follows the chain as printed. “Also recorded” adds a separate entry of the source. Read-outs that look alike come from different tables or passages of the source.

Columns and labels:
OCT1*12 (Ser29Leu) = biological target: T1, OCT1*12 (Ser29Leu) (Homo sapiens, UniProt O15245, L160F/S29L); test: Ranitidine uptake in HEK293 cells overexpressing OCT1*12; format: in vitro ADME; conditions: 1 μM and 10 μM ranitidine, 2 min
T1 construct: expressed in transfected cells; host or cells: HEK293 T-REx (Flp-In)
T1 sequence (O15245 1-554 S29L/L160F): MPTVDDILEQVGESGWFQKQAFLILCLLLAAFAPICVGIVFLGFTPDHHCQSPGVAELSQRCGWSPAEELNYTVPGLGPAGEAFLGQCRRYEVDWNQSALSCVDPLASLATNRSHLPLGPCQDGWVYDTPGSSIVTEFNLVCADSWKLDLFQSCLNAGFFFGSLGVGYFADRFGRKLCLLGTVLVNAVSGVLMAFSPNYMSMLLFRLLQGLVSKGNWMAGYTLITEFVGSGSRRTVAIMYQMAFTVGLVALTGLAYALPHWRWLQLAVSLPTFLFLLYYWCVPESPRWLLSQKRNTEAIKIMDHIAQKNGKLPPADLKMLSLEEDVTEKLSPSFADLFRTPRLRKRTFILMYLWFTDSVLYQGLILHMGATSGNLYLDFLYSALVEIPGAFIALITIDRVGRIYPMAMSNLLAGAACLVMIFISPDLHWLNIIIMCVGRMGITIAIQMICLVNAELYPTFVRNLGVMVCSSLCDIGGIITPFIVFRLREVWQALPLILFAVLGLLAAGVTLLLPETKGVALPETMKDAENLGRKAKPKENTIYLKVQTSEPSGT
Description: (§1) HEK293 or CHO cells overexpressing the human OCT1 alleles *1A (characterized by the amino acid substitution Met408Val), *1B, *1C (Phe160Leu), *1D (Pro341Leu/Met408Val), *2 (Met420del), *3 (Arg61Cys), *4 (Gly401Ser), *5 (Gly465Arg/Met420del), *6 (Cys88Arg/Met420del), *7 (Ser14Phe), *8A (Arg488Met), *8B (Arg488Met/Met408Val), *9 (Pro117Leu), *10 (Ser189Leu), *11 (Ile449Thr), *12 (Ser29Leu), or *13 (Thr245Met), the human OCT2 reference and variant alleles (Ala270Ser), human OCT3, and the control cells (transfected with the empty pcDNA5 vector) were generated by targeted chromosomal integration using the Flp-In™ System (Life Technologies, Darmstadt, Germany).
(§2) Six hundred thousand HEK293 or CHO cells were plated per well in 12-well plates (pre-coated with poly-D-lysine) and were grown for 48 hours to reach confluence. Cells were kept at 37°C and 5% CO2 in DMEM (HEK293) or RPMI (CHO), supplemented with 10% FCS, 100 U/ml penicillin, and 100 μg/ml streptomycin. Uptake experiments were performed at pH 7.4 using HBSS supplemented with 10 mM HEPES buffer (herein referred to as HBSS+). […]
(§3) For all transport measurements, the intracellular amount of substrate was normalized to the total amount of protein of the sample as measured using the bicinchoninic acid assay [49].
(§4) For quantification of intracellular substrates, the cell debris were removed by centrifugation at 17,000 x g for 10 min. […]

OCT1*13 (Thr245Met) = biological target: T2, OCT1*13 (Thr245Met) (Homo sapiens, UniProt O15245, L160F/T245M); test: Ranitidine uptake in HEK293 cells overexpressing OCT1*13; format: in vitro ADME; conditions: 1 μM and 10 μM ranitidine, 2 min
T2 construct: expressed in transfected cells; host or cells: HEK293 T-REx (Flp-In)
T2 sequence (O15245 1-554 L160F/T245M): T1 sequence (O15245 1-554 S29L/L160F) with L29S, T245M
Description: as §1, §2, §3, §4

OCT2 Ser270 (Ala270Ser) = biological target: T3, OCT2 Ser270 (Ala270Ser) (Homo sapiens, UniProt O15244); test: Ranitidine uptake in HEK293 cells overexpressing OCT2 variant (Ser270); format: in vitro ADME; conditions: 1 μM ranitidine, 2 min, not significant
T3 sequence (O15244 1-555): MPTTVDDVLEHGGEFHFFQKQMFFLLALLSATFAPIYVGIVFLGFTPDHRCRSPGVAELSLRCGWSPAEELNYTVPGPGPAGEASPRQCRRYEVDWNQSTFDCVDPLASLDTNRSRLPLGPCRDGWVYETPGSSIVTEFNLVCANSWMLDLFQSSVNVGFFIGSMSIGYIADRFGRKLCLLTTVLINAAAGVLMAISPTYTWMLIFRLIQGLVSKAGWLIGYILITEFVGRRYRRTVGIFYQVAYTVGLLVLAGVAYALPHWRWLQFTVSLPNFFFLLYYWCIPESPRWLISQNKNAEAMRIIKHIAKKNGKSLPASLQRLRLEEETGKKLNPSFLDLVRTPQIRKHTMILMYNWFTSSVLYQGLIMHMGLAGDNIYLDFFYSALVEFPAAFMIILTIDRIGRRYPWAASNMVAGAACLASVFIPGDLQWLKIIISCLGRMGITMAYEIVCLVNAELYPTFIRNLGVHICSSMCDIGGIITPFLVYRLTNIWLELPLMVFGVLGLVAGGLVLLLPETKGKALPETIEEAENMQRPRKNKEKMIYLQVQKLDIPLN
Description: as §1, §2, §3, §4

OCT1*1B = biological target: T4, OCT1*1B (Homo sapiens, UniProt O15245, L160F); conditions: for Vmax (±SEM): OCT1*1B reference allele, 10-600 μM ranitidine, control-cell uptake subtracted
T4 sequence (O15245 1-554 L160F): T1 sequence (O15245 1-554 S29L/L160F) with L29S
Description: as §1
Six hundred thousand HEK293 or CHO cells were plated per well in 12-well plates (pre-coated with poly-D-lysine) and were grown for 48 hours to reach confluence. Cells were kept at 37°C and 5% CO2 in DMEM (HEK293) or RPMI (CHO), supplemented with 10% FCS, 100 U/ml penicillin, and 100 μg/ml streptomycin. Uptake experiments were performed at pH 7.4 using HBSS supplemented with 10 mM HEPES buffer (herein referred to as HBSS+). Cells were washed once with 1 ml pre-warmed HBSS+ buffer (37°C). […] Cells were washed twice with 2 ml ice-cold HBSS+ and lysed in 500 μl lysis buffer.
as §3
For quantification of intracellular substrates, the cell debris were removed by centrifugation at 17,000 x g for 10 min. Four-hundred μl of the supernatant was evaporated to dryness under nitrogen flow at 40°C. The residue was reconstituted in 200 μl 0.1% formic acid and 10 μl were injected into the LC-MS/MS. For the LC-MS/MS analysis an API 4000™ system tandem mass spectrometer (AB SCIEX, Darmstadt, Germany) was used. Samples were separated using a Brownlee SPP RP-Amide Column (4.6x100 mm, 2.7 μm; PerkinElmer), with a SecurityGuard C18, 4x2 mm pre-column (Phenomenex, Aschaffenburg, Germany).
Nonlinear regression to the Michaelis-Menten equation was performed to determine Km and vmax using GraphPad Prism version 6 (GraphPad Software Inc., La Jolla, CA, USA). Nonlinear regression to the Hill equation v = vmin+(vmax-vmin)/1+([I]/IC50)^-Hillslope was performed to determine IC50 using SigmaPlot version 12.0 (Systat Software, San Jose, California, USA).

[1] = cited from earlier work

SMILES: CNC(=C[N+](=O)[O-])NCCSCc1ccc(CN(C)C)o1 [ranitidine, Ranitidine]
- ranitidine transport activity (OCT1*12 (Ser29Leu)): completely lacked ranitidine uptake; also recorded: complete lack of ranitidine transport activity
- ranitidine transport activity (OCT1*13 (Thr245Met)): completely lacked ranitidine uptake; also recorded: complete lack of ranitidine transport activity
- reduction of ranitidine uptake, Ser270 allele in comparison to the Ala270 allele (OCT2 Ser270 (Ala270Ser)): 9%
- ranitidine uptake, OCT1-overexpressing compared to control cells (OCT1*1B; 1 μM ranitidine, 2 min, HEK293): 7.8 fold
- intracellular concentration of ranitidine, OCT1-overexpressing cells compared to control cells (OCT1*1B; 1 μM ranitidine, after 1 min of incubation, HEK293): 8.5 fold
- Vmax (±SEM) (OCT1*1B; HEK293, 2 min): 1125 ± 86.1 pmol x min^-1 x mg protein^-1
- Vmax (±SEM) (OCT1*1B; HEK293, 2 min, listed as Ranitidine): 1125 pmol x min^-1 x mg protein^-1
- vmax (OCT1*1B; wild-type OCT1 (abstract)): 1125 pmol/min/mg protein
- portion eliminated unchanged via renal excretion ([1]; after oral administration): approximately half
- oral bioavailability [1]: 50–60%
- time to maximal plasma concentrations after administration [1]: two to three
- [I]1, mean unbound ranitidine steady state total Cmax ([1]; highest clinical dose (300 mg)): 2200 nM
- bioavailability in hepatic dysfunction ([1]; increase from 50%): 70%
- volume of distribution ([1]; no reference given): ~1.4 L/kg
